# Test results reported in ChEMBL document CHEMBL1201862, “PubChem BioAssay data set” (2004).
# Active and inactive are the calls of the source.
# Legend:
# [1] = biological target: T1, Heat shock factor protein 1 (Mus musculus, UniProt P38532); experiment: enhancement of HSF1-driven luciferase signal – cell-based, NIH3T3, luminescence, dose retest, confirmation (AID 435004); format: functional;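 further: stress induced by proteasome inhibitor MG132 added 30 min after compound; luciferase reporter driven by HSF1 response element in NIH3T3 cells; actives raise luminescence as potentiators of the MG132 stress response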
# T1 sequence (P38532 whole entry): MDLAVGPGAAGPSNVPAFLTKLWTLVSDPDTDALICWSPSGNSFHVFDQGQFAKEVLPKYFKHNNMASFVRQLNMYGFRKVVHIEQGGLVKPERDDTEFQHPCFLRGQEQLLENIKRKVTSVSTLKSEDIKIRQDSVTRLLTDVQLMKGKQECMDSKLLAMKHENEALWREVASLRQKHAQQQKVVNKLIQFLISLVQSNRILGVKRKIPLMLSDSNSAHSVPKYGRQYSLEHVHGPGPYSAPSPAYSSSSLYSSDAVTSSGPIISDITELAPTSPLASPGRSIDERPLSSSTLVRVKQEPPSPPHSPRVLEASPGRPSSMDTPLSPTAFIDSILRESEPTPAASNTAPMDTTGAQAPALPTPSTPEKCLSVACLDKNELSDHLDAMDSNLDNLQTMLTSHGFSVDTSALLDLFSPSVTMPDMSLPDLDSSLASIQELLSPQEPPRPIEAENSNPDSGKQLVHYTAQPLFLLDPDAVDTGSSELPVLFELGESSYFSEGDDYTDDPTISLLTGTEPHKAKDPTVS
# [2] = biological target: T2, Corticotropin-releasing factor receptor 2/Corticotropin-releasing factor-binding protein (Homo sapiens, UniProt P24387+Q13324); experiment: Dose Response confirmation of uHTS hits for small molecule antagonists of the CRF-binding protein and CRF-R2 receptor complex.; format: functional; settings: read-out: IC50_Mean
# T2 sequence (Q13324 whole entry): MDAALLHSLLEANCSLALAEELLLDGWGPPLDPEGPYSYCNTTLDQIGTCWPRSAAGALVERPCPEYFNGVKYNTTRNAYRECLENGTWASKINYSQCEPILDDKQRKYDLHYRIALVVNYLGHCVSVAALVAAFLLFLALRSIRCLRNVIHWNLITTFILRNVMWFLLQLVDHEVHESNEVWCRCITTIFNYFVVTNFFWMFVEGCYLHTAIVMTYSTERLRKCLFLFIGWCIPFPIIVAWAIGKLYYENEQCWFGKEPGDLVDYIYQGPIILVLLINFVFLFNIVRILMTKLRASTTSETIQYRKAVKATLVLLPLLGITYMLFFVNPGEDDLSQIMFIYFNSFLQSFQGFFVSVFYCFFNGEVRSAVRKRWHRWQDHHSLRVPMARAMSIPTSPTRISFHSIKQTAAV
# T2 sequence (P24387 whole entry): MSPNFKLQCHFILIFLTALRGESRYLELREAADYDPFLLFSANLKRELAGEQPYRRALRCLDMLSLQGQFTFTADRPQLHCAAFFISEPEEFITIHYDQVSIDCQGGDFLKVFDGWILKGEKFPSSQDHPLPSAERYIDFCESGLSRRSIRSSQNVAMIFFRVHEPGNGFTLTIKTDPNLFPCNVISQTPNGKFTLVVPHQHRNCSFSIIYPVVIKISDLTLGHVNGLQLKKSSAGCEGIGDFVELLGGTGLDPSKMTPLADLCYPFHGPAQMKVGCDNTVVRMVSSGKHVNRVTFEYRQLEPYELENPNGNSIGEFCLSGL
# [3] = biological target: T2, Corticotropin-releasing factor receptor 2/Corticotropin-releasing factor-binding protein; experiment: activators of CRF receptor 2 with binding protein – uHTS hits, confirmation (AID 602473); format: functional; settings: read-out: EC50_Mean
# [4] = Luminescence Cell-Based Dose Confirmation HTS to Identify Activators of 5'UTR Stem-Loop Driven Alpha-Synuclein mRNA Translation in H4 Neuroglioblastoma Cells. [Related pubchem assays: 1829 (Project Summary), 1814 (Primary HTS)]; format: functional
# [5] = Luminescence Cell-Based Dose Response HTS to Identify Activators of Luciferase Translation or Activity in H4 […] Cells. [Related pubchem assays: 1829 (Project Summary), 1814 (Primary HTS)]; format: functional
# [6] = tested on: H4; experiment: Luminescence Cell-Based Dose Response HTS to Identify Activators of 5'UTR Stem-Loop Driven Prion Protein mRNA Translation in H4 Neuroglioblastoma Cells. [Related pubchem assays: 1829 (Project Summary), 1814 (Primary HTS)]; format: functional; settings: Homo sapiens
# [7] = biological target: T1, Heat shock factor protein 1; experiment: decrease of HSF1-responsive luciferase luminescence – cell-based, NIH3T3, dose retest, confirmation (AID 2382); format: functional;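 further: NIH3T3 fibroblasts with HSF1-driven luciferase reporter stressed by proteasome inhibitor MG132; luminescence from HSF1-driven luciferase expression after 8 hours of MG132 stress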
# [8] = biological target: T3, Rac GTPase-activating protein 1 (Homo sapiens, UniProt Q9H0H5); experiment: blockers of MgcRacGAP-driven Rac1 GTP hydrolysis – biochemical, ADP Hunter fluorescence, primary and confirmatory, confirmation (AID 624330); format: functional
# T3 sequence (Q9H0H5 whole entry): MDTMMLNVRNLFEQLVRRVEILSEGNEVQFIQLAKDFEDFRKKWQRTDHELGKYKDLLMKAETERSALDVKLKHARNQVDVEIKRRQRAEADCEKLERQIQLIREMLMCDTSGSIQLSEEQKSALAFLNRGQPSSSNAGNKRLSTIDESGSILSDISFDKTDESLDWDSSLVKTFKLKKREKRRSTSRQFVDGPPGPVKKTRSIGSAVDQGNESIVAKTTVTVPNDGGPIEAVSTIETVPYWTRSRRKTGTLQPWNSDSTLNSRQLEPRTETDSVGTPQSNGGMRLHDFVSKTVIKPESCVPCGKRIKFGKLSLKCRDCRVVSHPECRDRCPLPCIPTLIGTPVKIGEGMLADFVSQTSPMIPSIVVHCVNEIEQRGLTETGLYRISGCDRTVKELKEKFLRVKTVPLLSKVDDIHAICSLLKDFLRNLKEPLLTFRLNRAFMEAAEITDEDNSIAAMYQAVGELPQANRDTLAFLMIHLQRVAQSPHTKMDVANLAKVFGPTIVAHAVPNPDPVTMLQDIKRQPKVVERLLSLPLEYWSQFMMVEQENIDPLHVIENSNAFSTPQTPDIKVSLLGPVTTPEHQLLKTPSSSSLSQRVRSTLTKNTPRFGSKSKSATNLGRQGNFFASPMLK
# [9] = biological target: T4, Cytochrome P450 1A2 (Homo sapiens, UniProt P05177);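 further: PubChem cytochrome P450 panel assay, CYP1A2 panel member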
# T4 sequence (P05177 whole entry): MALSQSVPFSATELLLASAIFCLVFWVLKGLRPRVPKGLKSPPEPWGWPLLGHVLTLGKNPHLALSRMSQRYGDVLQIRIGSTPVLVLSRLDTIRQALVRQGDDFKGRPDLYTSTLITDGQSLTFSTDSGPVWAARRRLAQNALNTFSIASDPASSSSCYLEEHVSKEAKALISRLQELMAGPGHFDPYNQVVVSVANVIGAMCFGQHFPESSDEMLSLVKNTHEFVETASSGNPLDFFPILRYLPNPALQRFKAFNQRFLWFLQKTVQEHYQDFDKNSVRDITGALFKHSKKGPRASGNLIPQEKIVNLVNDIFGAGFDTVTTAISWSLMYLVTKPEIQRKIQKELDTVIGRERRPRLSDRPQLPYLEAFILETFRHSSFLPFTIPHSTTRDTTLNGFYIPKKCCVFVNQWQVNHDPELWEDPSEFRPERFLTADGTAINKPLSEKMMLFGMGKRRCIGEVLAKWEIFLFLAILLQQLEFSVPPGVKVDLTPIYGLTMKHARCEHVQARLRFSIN
# [10] = biological target: Cytochrome P450 2C9 (Homo sapiens, UniProt P11712)
# Cytochrome P450 2C9, sequence (P11712 whole entry): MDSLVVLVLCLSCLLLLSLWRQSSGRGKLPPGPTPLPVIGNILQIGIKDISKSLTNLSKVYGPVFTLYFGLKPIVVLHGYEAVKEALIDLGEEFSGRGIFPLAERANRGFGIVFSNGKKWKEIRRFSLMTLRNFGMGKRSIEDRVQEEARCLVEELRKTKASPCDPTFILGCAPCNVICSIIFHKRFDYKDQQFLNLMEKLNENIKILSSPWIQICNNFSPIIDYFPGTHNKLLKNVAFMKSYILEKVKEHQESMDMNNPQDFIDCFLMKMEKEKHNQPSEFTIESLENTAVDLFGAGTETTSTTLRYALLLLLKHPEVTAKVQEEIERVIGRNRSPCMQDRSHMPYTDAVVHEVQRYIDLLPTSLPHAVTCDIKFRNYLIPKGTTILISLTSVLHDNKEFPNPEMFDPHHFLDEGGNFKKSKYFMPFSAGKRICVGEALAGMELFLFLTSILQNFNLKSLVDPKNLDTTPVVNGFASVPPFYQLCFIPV
# [11] = biological target: Cytochrome P450 2C19 (Homo sapiens, UniProt P33261); experiment: Cytochrome panel assay with activity outcomes. Panel member name: p450-cyp2c19 Compounds with AC50 equal or less than 10 uM are considered active; format: functional; settings: read-out: AC50
# Cytochrome P450 2C19, sequence (P33261 whole entry): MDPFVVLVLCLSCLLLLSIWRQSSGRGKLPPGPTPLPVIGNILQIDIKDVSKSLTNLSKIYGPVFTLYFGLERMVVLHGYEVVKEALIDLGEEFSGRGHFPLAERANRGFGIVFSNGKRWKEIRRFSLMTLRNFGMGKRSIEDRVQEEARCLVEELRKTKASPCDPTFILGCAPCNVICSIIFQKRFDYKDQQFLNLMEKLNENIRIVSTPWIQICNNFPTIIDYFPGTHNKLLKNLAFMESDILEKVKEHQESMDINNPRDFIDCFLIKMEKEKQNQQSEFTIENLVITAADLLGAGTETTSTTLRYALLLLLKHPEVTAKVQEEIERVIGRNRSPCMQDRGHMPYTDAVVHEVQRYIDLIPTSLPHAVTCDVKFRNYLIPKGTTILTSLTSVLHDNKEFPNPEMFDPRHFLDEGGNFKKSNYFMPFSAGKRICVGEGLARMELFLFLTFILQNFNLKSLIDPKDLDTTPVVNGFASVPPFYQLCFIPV
# [12] = biological target: Cytochrome P450 3A4 (Homo sapiens, UniProt P08684);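 further: CYP3A4 tested as one member of a cytochrome P450 panel screen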
# Cytochrome P450 3A4, sequence (P08684 whole entry): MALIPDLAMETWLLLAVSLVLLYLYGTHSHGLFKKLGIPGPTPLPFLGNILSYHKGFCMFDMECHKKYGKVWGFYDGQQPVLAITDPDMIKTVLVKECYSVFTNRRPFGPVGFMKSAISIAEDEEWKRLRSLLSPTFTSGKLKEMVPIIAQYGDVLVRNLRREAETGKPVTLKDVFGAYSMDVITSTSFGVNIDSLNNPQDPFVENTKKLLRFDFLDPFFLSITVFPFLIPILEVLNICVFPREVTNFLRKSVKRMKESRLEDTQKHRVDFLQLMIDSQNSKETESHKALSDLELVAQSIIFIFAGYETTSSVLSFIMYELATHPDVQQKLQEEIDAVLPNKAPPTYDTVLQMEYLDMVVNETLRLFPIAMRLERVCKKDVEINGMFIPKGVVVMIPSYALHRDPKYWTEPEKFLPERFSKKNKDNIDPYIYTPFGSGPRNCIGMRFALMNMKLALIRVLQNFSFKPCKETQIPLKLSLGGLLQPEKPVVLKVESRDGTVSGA
smiles,measurement,setting,value
COc1cccc(/N=C/C2=C(O)OC3(CCCCC3)OC2=O)c1,EC50,[1],> 260 µM (inconclusive)
O=C(Nc1ccccc1C(=O)N1CCOCC1)c1ccncc1,IC50,[2],> 47.1 µM (inactive)
same,EC50,[3],> 53 µM (inactive)
CC(C)N1C(=O)CN(C2CCCCCC2)C(=O)C1c1ccccc1F (stereo not drawn),EC50,[4],10.8 µM (active)
same,EC50,[5],20.9 µM (active)
same,EC50,[6],21 µM (active)
same,EC50,[7],77.6 µM (active)
C/C=C/c1c(F)c(F)c(Oc2ccc(C(=O)O)cc2)c(F)c1F,EC50,[1],> 260 µM (inactive)
CCOC(=O)CNC(=O)CSc1nnc(C)c(O)n1,EC50,[7],> 195 µM (not active)
CN(C)c1ccc(C2Nc3ccccc3C(=O)N2CCCN2CCOCC2)cc1 (stereo not drawn),EC50,[7],2.02 µM (active)
Fc1ccc(CNCc2ccccc2Cl)cc1,EC50,[7],> 195 µM (not active)
same,IC50,[8],213 µM (active)
COC(=O)c1ccc(NC(=O)c2ccccc2)o1,AC50,[9],2.82 µM (inconclusive)
same,AC50,[10],17.8 µM (inconclusive)
CCN(C(=O)Cn1c([N+](=O)[O-])cnc1C)c1ccccc1,EC50,[7],> 195 µM (not active)
COC(=O)C1=CN(Cc2ccc(OC)c(OC)c2)C=C(C(=O)OC)C1c1ccccc1F,EC50,[7],> 195 µM (not active)
COc1ccc(NC(=O)C2c3cc(OC)c(OC)cc3C(=O)N(C)C2c2cccnc2)cc1OC (stereo not drawn),AC50,[10],17.8 µM (inconclusive)
COC(=O)[C@@]1(Cc2ccc(OC)cc2)[C@H]2c3cc(C(=O)N(C)C)n(CCSCCO)c3C[C@H]2CN1C(=O)c1ccccc1,AC50,[11],20 µM (inconclusive)
same,AC50,[10],12.6 µM (inconclusive)
O=C(OCc1ccc2c(c1)OCO2)c1ccc(S(=O)(=O)N2CCCC2)cc1,IC50,[2],> 47.1 µM (inactive)
same,EC50,[3],> 53 µM (inactive)
Cc1ccc(F)c(NC(=O)c2ccc(Cn3cc(Cl)cn3)cc2)c1,EC50,[7],> 195 µM (not active)
COc1ccc(Nc2cc(C(=O)NCCCN3CCN(C)CC3)c3ccccc3n2)cc1,AC50,[9],10 µM (inconclusive)
same,AC50,[10],14.1 µM (inconclusive)
Cc1cc(/C=C(/C#N)C(=O)O)c(C)n1-c1cccc2ccccc12,IC50,[2],6.86 µM (active)
same,EC50,[3],> 53 µM (inactive)
C=CCN=C(S)Nc1ccc2nc(C)c(C)nc2c1,AC50,[10],12.6 µM (inconclusive)
CC(C)(C)CC(C)(C)c1cc(O)c(O)c(CN2CCCCC2)c1,AC50,[12],3.98 µM (inconclusive)
same,AC50,[10],7.94 µM (inconclusive)
CC(C)c1ccccc1-n1c(S)nnc1-c1cccnc1,EC50,[7],> 195 µM (not active)
COCC(=O)N(C)[C@H]1C[C@H]2c3cc(N4CCN(C)CC4)ccc3CCN2C(=O)[C@H]1[C@H](C)O,IC50,[2],> 47.1 µM (inactive)
same,EC50,[3],> 53 µM (inactive)
O=C(CSc1ccc(-c2ccncc2)nn1)N1CCN(c2ccccc2)CC1,IC50,[2],> 47.1 µM (inactive)
same,EC50,[3],> 53 µM (inactive)
O=C(COc1ccccc1)NCc1ccco1,IC50,[2],> 47.1 µM (inactive)
same,EC50,[3],> 53 µM (inactive)
COc1ccc(N2CCN(CCCNC(=O)C(=O)c3c(C)[nH]c4ccccc34)CC2)cc1,IC50,[2],> 47.1 µM (inactive)
same,EC50,[3],> 53 µM (inactive)
COc1ccc(-c2cn(-c3ccccc3)nc2CO)cc1,EC50,[7],> 195 µM (not active)
CCC[C@@H]1C[C@@]1(CCC)C(NC(=O)OCc1ccccc1)c1ccc(-c2ccccc2)cc1 (stereo partly drawn),AC50,[12],3.98 µM (inconclusive)
same,AC50,[10],3.98 µM (inconclusive)
Cc1nc2cnc(N3CCOCC3)nc2n(Cc2ccc(F)cc2)c1=O,AC50,[10],31.6 µM (inconclusive)
COc1ccc(C(=O)NCCS(=O)(=O)N(C)C2CCCCC2)cc1,IC50,[2],> 47.1 µM (inactive)
same,EC50,[3],> 53 µM (inactive)
Cc1cccc(C)c1NC(=O)c1sccc1SCc1cccc(C(F)(F)F)c1,IC50,[2],> 47.1 µM (inactive)
same,EC50,[3],> 53 µM (inactive)
CC1C(=O)C(C)C(c2ccco2)NC1c1ccco1 (stereo not drawn),EC50,[7],> 195 µM (not active)
CCOc1ccccc1NC(=O)C1=C(C)NC(=O)NC1c1cccc(OC)c1OC (stereo not drawn),AC50,[10],25.1 µM (inconclusive)
Cc1noc(C)c1COC(=O)c1cccc(S(=O)(=O)N2c3ccccc3CC2C)c1 (stereo not drawn),IC50,[2],> 47.1 µM (inactive)
same,EC50,[3],> 53 µM (inactive)
O=C(CN1CCCCC1)Nc1cccc2c1OCO2,EC50,[7],> 195 µM (not active)
C=CCSc1nc2ccccc2c(=O)n1Cc1ccco1,AC50,[10],3.98 µM (inconclusive)
COc1ccc(N(CC(=O)NCCSc2ccccn2)S(=O)(=O)c2ccc(C)cc2)cc1OC,IC50,[2],> 47.1 µM (inactive)
same,EC50,[3],> 53 µM (inactive)
COC(=O)c1ccc(N2CCN(C(C)=O)CC2)c(NC(=O)COc2ccccc2C)c1,EC50,[7],> 195 µM (not active)
CCCCN(CC)S(=O)(=O)N1CCC(C(=O)NCCCN2CCOCC2)CC1,AC50,[11],1 µM (inconclusive)
same,AC50,[10],25.1 µM (inconclusive)
COc1ccc(N2CCN(CC(O)COCCOc3ccc(Br)cc3)CC2)cc1 (stereo not drawn),EC50,[7],> 195 µM (not active)
CCOc1ccc(-n2cc(C(=O)NCc3ccco3)c3cc(OC)c(OC)cc3c2=O)cc1,AC50,[12],22.4 µM (inconclusive)
same,AC50,[10],4.47 µM (inconclusive)
Cc1ccc(OCC(=O)NC(=S)Nc2ccccn2)c(Br)c1,EC50,[7],< 0.16 µM (active)
COc1ccc(CCn2c3c(c(=O)[nH]c2=O)C(NC(=O)c2cccs2)(C(F)(F)F)C(=O)N3)cc1OC (stereo not drawn),AC50,[12],14.1 µM (inconclusive)
same,AC50,[10],8.91 µM (inconclusive)
